Measured values: US20220289719A1, “HETEROCYCLIC COMPOUNDS AS MNK INHIBITORS” (NANJING INNOCARE PHARMA TECH CO., LTD., priority 2017, published 2022)
Where a name gives a salt, the structure may show the parent alone.

molecular target: T1, Human recombinant full-length MNK1 protein (Homo sapiens, UniProt Q9BUB5); test: MNK1 inhibitory activity assay (ADP-Glo in vitro kinase assay); type: biochemical; details: 10 concentration points
T1 construct: Human recombinant full-length MNK1 protein; purchased Thermo PR9138A
T1 sequence (Q9BUB5 whole entry): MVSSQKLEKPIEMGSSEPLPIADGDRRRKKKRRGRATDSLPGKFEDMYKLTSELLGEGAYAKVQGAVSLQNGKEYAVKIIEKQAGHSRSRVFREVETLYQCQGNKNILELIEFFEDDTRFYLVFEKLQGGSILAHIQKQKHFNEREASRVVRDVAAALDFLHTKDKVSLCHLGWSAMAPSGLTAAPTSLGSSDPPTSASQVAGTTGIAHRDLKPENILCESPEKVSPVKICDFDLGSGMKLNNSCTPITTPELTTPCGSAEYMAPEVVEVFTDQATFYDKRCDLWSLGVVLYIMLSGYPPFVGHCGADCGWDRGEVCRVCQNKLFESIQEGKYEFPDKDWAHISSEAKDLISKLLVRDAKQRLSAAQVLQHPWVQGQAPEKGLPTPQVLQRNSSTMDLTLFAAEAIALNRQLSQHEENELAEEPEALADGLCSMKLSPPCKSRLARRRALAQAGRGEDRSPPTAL
Description: MNK1 Inhibitory Activity Assay: Evaluation of the effects of compounds of the invention on […] (MNK1) activity using in vitro kinase assays. The experimental methods are summarized as follows: The in vitro activity of MNK1 was determined by measuring the level of ADP produced in the kinase reaction using the ADP-Glo Kinase Assay Kit. The reaction buffer consisted of the following components: 50 mM HEPES, pH 7.5, 10 mM MgCl2, 1 mM EGTA, 0.01% Brij35. Human recombinant full-length MNK1 protein (Thermo, Cat. No. PR9138A) was diluted with a reaction buffer to a 3.13 ng/uL kinase solution. The substrate reaction solution consisted of a substrate diluted to 0.75 mg/ml in reaction buffer ([…], available from […] Domestic Company), 2250 uM ATP, the ADP-Glo reagent and kinase assay solution from Promega kit (Promega, V9102). […] If the compound IC50 value is very low, the initial concentration of the compound can be lowered. To a 384-well assay plate (Thermo, Cat. No. 264706) were added 1 uL of compound solution and 2 uL of MNK1 kinase solution. The mixture was mixed well and incubated for 30 minutes at room temperature; then 2 uL of substrate reaction solution was added, the reaction mixture was incubated for 120 minutes at room temperature. The reaction was terminated after an equal volume of 5uLADP-Glo solution was added, and the remaining ATP was completely consumed. After mixing for 60 minutes at room temperature, 10 ul of the kinase assay solution was added, and the mixture was uniformly mixed, and allowed to stand at room temperature for 40 minutes in the dark. The detection solution converts ADP into new ATP through coupled luciferase/luciferin, and ATP is converted into optical signal by Ultr-GloTM luciferase, which can be detected by Envision. The intensity of the light signal is proportional correlated with the amount of ADP produced in the kinase reaction, therefore, the activity of MNK1 kinase can be determined. In this experiment, the group without protein was used as a negative control (100% inhibition). The group with protein but without compounds was used as a positive control (0% inhibition).

| Structure (SMILES) | IC50 |
| --- | --- |
| COc1cc2c(cnn2C(=O)OC(C)(C)C)cc1Nc1cc(NC(C)=O)ncn1 [Compound 1, 1-tert-Butoxycarbonyl-5-(6-acetylaminopyrimidin-4-ylamino)-6-methoxyindazole] | 15.5 nM |
| COc1cc2c(cnn2C(=O)OC(C)(C)C)cc1Nc1cc(NC(=O)C2CC2)ncn1 [Compound 3, 1-tert-Butoxycarbonyl-5-(6-cyclopropionamidopyrimidin-4-ylamino)-6-methoxyindazole] | 11.3 nM |
| COc1cc2c(cnn2C)cc1Nc1cc(NC(=O)C2CC2)ncn1 [Compound 5, 5-(6-Cyclopropionamidopyrimidin-4-ylamino)-6-methoxyl-methylindazole formate] | 585 nM |
| CC(C)Oc1cc2[nH]ncc2cc1Nc1cc(NC(=O)C2CC2)ncn1 [Compound 7, 5-(6-cyclopropionamidopyrimidin-4-ylamino)-6-isopropoxy-1H-indazole formate] | 44.9 nM |
| COc1cc2c(cnn2C(=O)C2CCCCC2)cc1Nc1cc(NC(=O)C2CC2)ncn1 [Compound 8, 1-Cyclohexanoyl-5-(6-cyclopropionamidopyrimidin-4-ylamino)-6-methoxyindazole] | 64.1 nM |
| COc1cc2[nH]ncc2cc1Nc1cc(NC(=O)c2ccccc2)ncn1 [Compound 10, 5-(6-benzoylaminopyrimidin-4-ylamino)-6-methoxy-1H-indazole] | 23.8 nM |
| COc1cc2[nH]ncc2cc1Nc1cc(NC(=O)c2ccccn2)ncn1 [Compound 11, 5-(6-(2-Pyridine) formylaminopyrimidin-4-ylamino)-6-methoxy-1H-indazole] | 532 nM |
| COc1cc2c(cnn2C(=O)C(C)C)cc1Nc1cc(NC(=O)C2CC2)ncn1 [Compound 13, 1-Isobutyryl-5-(6-cyclopropionamidopyrimidin-4-ylamino)-6-methoxyindazole] | 225 nM |
| COc1cc2nn(C(=O)C3CC3)cc2cc1Nc1cc(NC(=O)C2CC2)ncn1 [Compound 15, 2-Cyclopropanoyl-5-(6-cyclopropionamidopyrimidin-4-ylamino)-6-methoxyindazole] | 21 nM |
| COc1cc2[nH]ncc2cc1Nc1cc(NC(=O)C(C)C)ncn1 [Compound 19, N-(6-((6-Methoxy-1H-indazol-5-yl)amino)pyrimidin-4-yl)isobutyramide] | 45 nM |
| COc1cc2[nH]ncc2cc1Nc1cc(Nc2ccccn2)ncn1 [Compound 20, 5-(6-(Pyridin-2-ylamino)pyrimidin-4-ylamino)-6-methoxy-1H-indazole formate] | 29.2 nM |
| COc1cc2[nH]ncc2cc1Nc1cc(Nc2cccc(Cl)n2)ncn1 [Compound 23, 5-(6-((6-Chloropyridin-2-yl)amino)pyrimidin-4-ylamino)-6-methoxy-1H-indazole] | 31.3 nM |
| COc1cc2[nH]ncc2cc1Nc1cc(Nc2cc(C(F)(F)F)ccn2)ncn1 [Compound 25, 5-(6-((4-(Trifluoromethyl)pyridin-2-yl)amino)pyrimidin-4-ylamino)-6-methoxy-1H-indazole] | 40 nM |
| COc1cc2[nH]ncc2cc1Nc1cc(Nc2ncc(Cl)cn2)ncn1 [Compound 26, 5-(6-((5-chloropyrimidin-2-yl)amino)pyrimidin-4-ylamino)-6-methoxy-1H-indazole] | 36.6 nM |
| COc1cc2[nH]ncc2cc1Nc1cc(Nc2ncccn2)ncn1 [Compound 27, 5-(6-(Pyrimidin-2-ylamino)pyrimidin-4-ylamino)-6-methoxy-1H-indazole] | 43.8 nM |
| CNc1cc(Nc2cc3cn[nH]c3cc2OC)ncn1 [Compound 30, 5-(6-Methylaminopyrimidin-4-ylamino)-6-methoxy-1H-indazole] | 141 nM |
| COc1cc2[nH]ncc2cc1Nc1cc(NC2CC2)ncn1 [Compound 31, 5-(6-Cyclopropylaminopyrimidin-4-ylamino)-6-methoxy-1H-indazole formate] | 126 nM |
| COc1cc2[nH]ncc2cc1Nc1ncnc(N)c1C1=CCC(C(=O)N2CCN(C)CC2)CC1 (centres unmarked) [Compound 33, 5-((6-Amino-5-cyclohex-3-en-1-yl (4-methylpiperazin-1-yl)methanylpyrimidin-4-yl)amino)-6-methoxy-1H-indazole formate] | 94.7 nM |
| COc1cc2[nH]ncc2cc1Nc1ncnc(N)c1C1=CCC(C(=O)N(C)C)CC1 (centres unmarked) [Compound 34, 4-(4-Amino-6-((6-methoxy-1H-indazol-5-yl)amino)pyrimidin-5-yl)-N,N-dimethylcyclohex-3-ene-1-carboxamide formate] | 450 nM |

More lines, in order of falling IC50, values ahead:

| IC50 | Structure (SMILES) |
| --- | --- |
| 1110 nM | COc1cc2c(cnn2C(=O)C2CC2)cc1Nc1cc(NC(=O)C2CC2)ncn1 [Compound 14, 1-Cyclopropanoyl-5-(6-cyclopropionamidopyrimidin-4-ylamino)-6-methoxyindazole] |
| 729 nM | COc1cc2[nH]ncc2cc1Nc1cc(NC(=O)C(C)(C)C)ncn1 [Compound 12, 5-(6-Pivaloylaminopyrimidin-4-ylamino)-6-methoxy-1H-indazole] |
| 539 nM | COc1cc2[nH]ncc2cc1Nc1cc(Nc2ncccc2Cl)ncn1 [Compound 28, 5-(6-((3-Chloropyridin-2-yl)amino)pyrimidin-4-ylamino)-6-methoxy-1H-indazole] |
| 294 nM | COc1cc2[nH]ncc2cc1Nc1cc(N)ncn1 [Compound 9, 5-(6-aminopyrimidin-4-ylamino)-6-methoxy-1H-indazole] |
| 166 nM | COc1cc2[nH]ncc2cc1Nc1ncnc(N)c1C1=CCC(C(=O)O)CC1 (centres unmarked) [Compound 32, 5-((6-Amino-5-cyclohex-3-ene-1-carboxypyrimidin-4-yl)amino)-6-methoxy-1H-indazole hydrochloride] |
| 78.2 nM | COc1cc2[nH]ncc2cc1Nc1cc(Nc2cc(Cl)ccn2)ncn1 [Compound 21, 5-(6-((4-Chloropyridin-2-yl)amino)pyrimidin-4-ylamino)-6-methoxy-1H-indazole] |
| 59.5 nM | COc1cc2[nH]ncc2cc1Nc1cc(NC(C)=O)ncn1 [Compound 2, 5-(6-Acetylaminopyrimidin-4-ylamino)-6-methoxy-1H-indazole] |
| 57.9 nM | COc1cc2[nH]ncc2cc1Nc1cc(Nc2cnccn2)ncn1 [Compound 29, 5-(6-(Pyrazin-2-ylamino)pyrimidin-4-ylamino)-6-methoxy-1H-indazole] |
| 42.2 nM | COc1cc2[nH]ncc2cc1Nc1cc(Nc2ccc(Cl)cn2)ncn1 [Compound 24, 5-(6-((5-Chloropyridin-2-yl)amino)pyrimidin-4-ylamino)-6-methoxy-1H-indazole formate] |
| 29.8 nM | CCOc1cc2[nH]ncc2cc1Nc1cc(NC(=O)C2CC2)ncn1 [Compound 6, 5-(6-Cyclopropionamidopyrimidin-4-ylamino)-6-ethoxy-1H-indazole] |
| 27.9 nM | COC(=O)n1ncc2cc(Nc3cc(NC(=O)C4CC4)ncn3)c(OC)cc21 [Compound 17, 1-Methoxyacyl-5-(6-cyclopropionamidopyrimidin-4-ylamino)-6-methoxyindazole] |
| 23.3 nM | COc1cc2[nH]ncc2cc1Nc1cc(Nc2ccncn2)ncn1 [Compound 22, 5-(6-(pyrimidin-4-ylamino)pyrimidin-4-ylamino)-6-methoxy-1H-indazole formate] |
| 10.5 nM | CCOC(=O)n1ncc2cc(Nc3cc(NC(=O)C4CC4)ncn3)c(OC)cc21 [Compound 18, 1-Ethoxyacyl-5-(6-cyclopropionamidopyrimidin-4-ylamino)-6-methoxyindazole] |
